Test results reported in US10940188B2, “Compounds and methods for treatment and prevention of Flavivirus infection” (priority 2016, dated 2021).
pIC50: −log10 of the molar value. Read-outs that look alike come from different tables or passages of the source.

Tests used:
[1] = test system: ZIKV (FSS13025, PRVABC59, MR766) in SNB-19 cells; test: Anti-ZIKV activity in SNB-19 cells (NS1 Western blot, NS1 ELISA, immunofluorescence); type: cell-based, Zika virus; details: for anti-ZIKV activity in SNB-19 cells: compound added 1 hour prior to infection; for time-of-addition effect on ZIKV infection / pIC50: SNB-19 cells; for time-of-addition effect on ZIKV infection: PRVABC59, added 1 hour before or 4 hours after inoculation; for pIC50: all three strains of ZIKV, read-out: IC50 of inhibition of ZIKV (NS1 read-out)
Description: FIGS. 2A-1, 2A-2, 2B-1, 2B-2, 2C-1, 2C-2, 2D-1, 2D-2, 2D-3, 2E-1, 2E-2, and 2F. […] Screening of select compounds for antiviral activity against ZIKV infection was carried out. Glioblastoma SNB-19 cells were treated with indicated compound at 10×AC50 (determined in the primary caspase screen) for 1 hour prior to inoculation with FSS-13025 (at MOI=1). Cells were harvested 24 hours post infection and analyzed by Western blot for ZIKV-NS1 or GAPDH (FIGS. 2A-1 and 2A-2). […] Three strains of virus (FSS-13025, PRVABC59, and MR766; MOI=1) were tested. Shown are sample western blot images (FIG. 2B-1) and ImageJ quantification (FIG. 2B-2). Values represent mean±s.d. (n=3; ***P<0.001; One-way ANOVA). Titration of Emricasan on SNB-19 cells for anti-ZIKV activity was conducted similarly (FIGS. 2C-1 and 2C-2). Values represent mean±s.d. […] Sample western blot (FIG. 2D-2) and ImageJ quantification (FIG. 2D-3) are shown for infection with the PRVABC59 strain (MOI=1). Results for additional strains are shown in FIGS. 6A-F. Values represent mean±s.d. (n=2; **P<0.01; ***P<0.001; One-way ANOVA). […] The concentration of NS1 in the medium of infected SNB-19 cells collected 24 hours post-infection was quantified by a ZIKV-NS1 ELISA kit (FIGS. 2E-1 and 2E-2). Values represent mean±s.d. (n=3; ***P<0.001; One-way ANOVA). […] SNB-19 cells were treated with each indicated compound at increasing concentrations for 1 hour before infection with PRVABC59 at a MOI=0.5 (n=3 cultures). Cell culture supernatant was collected 24 hours after infection, and infectious virions were quantified for focus-forming units (FFU) using Vero cells. Data represent mean±s.d.
FIGS. 3A, 3B, 3C-1, 3C-2, 3C-3, 3C-4, 3C-5, 3D-1, 3D-2, and 3E. […] SNB-19 cells were treated with the indicated compound at 92 μM for one hour prior to infection with FSS13025 or PRVABC59 (MOI=1). Cells were harvested 24 hours post infection and analyzed by western blot for ZIKV-NS1 or GAPDH. Shown are sample images and quantification (FIGS. 3D-1 and 3D-2). Values represent mean±s.d. (n=2; ***P<0.01; One-way ANOVA). Data were normalized to those obtained for DMSO-treated cells. Values represent mean±s.d. *P<0.05; **P<0.01; ***P<0.001; by one-way ANOVA, as compared to DMSO-treated cells.
FIGS. 18A, 18B, 18C-1, 18C-2, 18D, 18E, 18F, 18G-1, and 18G-2. […] 24 hours post infection, supernatants from SNB-19 cells were titrated onto naïve vero cells plated in a monolayer in 96-well plates for infectious focus-forming unit assay as previously described and focus forming units quantified. […] Immunofluorescence (IF) staining (FIG. 18C-1) and quantification (FIG. 18C-2) of ZIKV positive SNB-19 cells following infection with one of three ZIKV strains and treatment with emetine at 0.01, 0.1, or 1 μM. […] Drug was added at 1 μM either 1-hour prior to infection with PRVABC59-ZIKV, or 4-hours post infection with PRVABC59-ZIKV. […] Drug was added at 1 μM either 1-hour prior to infection with PRVABC59-ZIKV, or 4-hours post infection with PRVABC59-ZIKV.
Cells were harvested by trypsinization, pelleting, and subsequent lysis in 1× Laemlli buffer and boiled, or directly lysed in 1× Laemlli buffer and boiled. Antibodies used were anti-ZIKV NS1 (1:2000; BF-1225-36, BioFront Technologies, Tallahassee, Fla.) or GAPDH (Santa Cruz Biotechnology, Texas).

ZIKV PRVABC59 in hNPCs = test: ZIKV infection of hNPCs (NS1 Western blot); type: cell-based, Zika virus
Description: FIGS. 4A-1, 4A-2, 4B-1, 4B-2, 4B-3, 4C-1, 4C-2, 4D-1, and 4D-2. […] Cells were fixed 24 hours post infection and stained for ZIKVE (green) and DAPI (blue). Scale bar: 50 μm. Also shown is the quantification of ZIKV-infected astrocytes with multiple compound concentrations (FIG. 4A-2). Values represent mean±s.d. (n=6; ***P<0.001; One-way ANOVA). Shown in FIG. 4B-3 is virus production from compound-treated iPSC-derived human astrocytes (as in FIG. 2F) (n=3 cultures). Data represent mean±s.d. […] Shown are sample images and quantification (FIGS. 4B-1 and 4B-2). Values represent mean±s.d. (n=2; ***P<0.01; One-way ANOVA). […] Note that Emricasan and PHA-690509 inhibit the increased caspase-3 activity in a concentration-dependent manner in human astrocytes infected with FSS13025-ZIKV or MR766 ZIKV, and improve cell viability as measured by ATP production (FIGS. 4C-1, 4C-2, 4D-1, and 4D-2). […]
SNB-19 cells, BJ astrocytes, or hNPCs were seeded in 12-well plates at approximately 3e5 cells/well. […] Cells and supernatant were harvested 24-48 hours post infection and analyzed by western blot or IFA. Western blot bands were quantified and IFA images counted using ImageJ (NIH, Bethesda, Md.).
SNB-19, BJ astrocyte, or NPCs were seeded in 12-well plates at approximately 3e5 cells/well. […] Cells and supernatant were harvested 24-48 hours post infection and analyzed by western blot or IFA. […]

Compound	anti-ZIKV activity in SNB-19 cells [1]	time-of-addition effect on ZIKV infection [1]	pIC50 ([1]; Zika virus)	inhibition of ZIKV infection in hNPCs (ZIKV PRVABC59 in hNPCs)	pIC50 [1]
C[C@H](NC(=O)C(=O)Nc1ccccc1C(C)(C)C)C(=O)N[C@@H](CC(=O)O)C(=O)COc1c(F)c(F)cc(F)c1F [Emricasan]	no significant differences were found				
O=C(Nc1ccc([N+](=O)[O-])cc1Cl)c1cc(Cl)ccc1O [Niclosamide]	significantly inhibited ZIKV infection in SNB-19 cells	effectively inhibited ZIKV infection when added either 1 hour before or 4 hours after virus inoculation	5.70 to 6.30	inhibited ZIKV^PR infection	
CC(=O)Nc1ccc([C@H](C)C(=O)Nc2ncc(C(C)C)s2)cc1 [PHA-690509]	significantly inhibited ZIKV infection in SNB-19 cells	effectively inhibited ZIKV infection when added either 1 hour before or 4 hours after virus inoculation		inhibited ZIKV^PR infection	4.44 to 4.92
CC[C@H]1CN2CCc3cc(OC)c(OC)cc3[C@@H]2C[C@@H]1C[C@H]1NCCc2cc(OC)c(OC)cc21 [Emetine]	reduces ZIKV infection in a dosage dependent manner	effective against ZIKV infection when added both before or after infection			
